Source: PubChem BioAssay (NCI)
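The compound was tested at five concentrations on cells cultured in 96-well plates, with a 48-hour exposure period. At the TGI there is no net growth.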

Tests used:
Test in all cases: NCI tumour cell line growth inhibition, 48 h
[1] = tested on: SN12C renal
[2] = tested on: SR leukemia
[3] = tested on: SNB-78 CNS
[4] = tested on: LXFL 529 NSCLC
[5] = tested on: NCI-H522 lung
[6] = tested on: SK-MEL-28 melanoma
[7] = tested on: SNB-19 CNS
[8] = tested on: IGROV1 ovarian
[9] = tested on: HL-60(TB) leukemia
[10] = tested on: DMS 273 small cell lung
[11] = tested on: HOP-62 NSCLC

Row | Compound | TGI [1] | TGI [2] | TGI [3] | TGI [4] | TGI [5] | TGI [6] | TGI [7] | TGI [8] | TGI [9] | TGI [10] | TGI [11]
1 | COc1ccc2c(c1)[n+]([O-])c(-c1ccc(C)cc1)c(N)[n+]2[O-] | > 100 µM | > 100 µM | > 100 µM | > 100 µM | 30.3 µM | > 100 µM | > 100 µM | > 100 µM | > 100 µM | > 100 µM | > 100 µM
2 | COc1ccc(-c2cc(-c3cc(Cl)cc(Br)c3O)[nH]c(=O)n2)cc1 | 32.3 µM | 51.8 µM | 64.2 µM | 30 µM | 30 µM | 44.7 µM | 57.2 µM | 52.4 µM | 48.5 µM | 31.1 µM | 28.1 µM
3 | C#CC1(O)c2ccccc2C(=O)c2ccccc21 | > 100 µM | > 100 µM | > 100 µM | > 100 µM | > 100 µM | > 100 µM | > 100 µM | > 100 µM | > 100 µM | > 100 µM | > 100 µM
4 | CCOC(=O)c1oc2ccc([N+](=O)[O-])c3c2c1CCC3 | > 100 µM | > 100 µM | > 75 µM | > 100 µM | > 85.2 µM | > 100 µM | > 89.6 µM | > 100 µM | > 100 µM | > 100 µM | 58.9 µM
5 | Cc1ccc(NC(=S)SCCC(=O)O)cc1 | > 100 µM | > 100 µM | > 100 µM | > 100 µM | > 100 µM | > 100 µM | > 100 µM |  | > 100 µM | > 100 µM | > 100 µM
6 | CC12CO[C@@](C)(CC(S(=O)(=O)c3ccccc3)C1)O2 (some centres not stated) | > 100 µM | > 100 µM | > 100 µM | > 100 µM | > 100 µM | > 100 µM | > 100 µM | > 100 µM | > 100 µM | > 100 µM | > 100 µM
7 | C=CC1(NS(=O)(=O)c2ccc(C)cc2)CCC(C(C)(C)C)CC1 (configuration not stated) | > 100 µM | > 100 µM | > 100 µM | > 100 µM | > 100 µM | > 100 µM | > 100 µM | > 100 µM | > 100 µM | > 100 µM | > 100 µM
8 | O=C(CC1(O)C(=O)Nc2ccccc21)c1ccc(O)cc1 (configuration not stated) | > 100 µM | > 100 µM | > 100 µM | > 100 µM |  | > 100 µM | > 100 µM | > 100 µM | > 100 µM | > 100 µM | > 100 µM
9 | CC(CNCCCNCCNCCCNCO)[N+](=O)[O-] (configuration not stated) | 28.4 µM | 28.4 µM | 48.3 µM | 13.9 µM |  | 26.6 µM | > 100 µM | 44.3 µM | 19.1 µM | 32.4 µM | > 100 µM
10 | CCN(CC)C(=O)N1CCN(C=S)CC1 | > 100 µM | > 100 µM | > 100 µM | > 100 µM | > 100 µM | > 100 µM | > 100 µM | > 100 µM | > 100 µM | > 100 µM | > 100 µM
11 | CC1C[C@]2(C[C@@H](C)C(=O)O2)O[C@@H]2CC3(C)[C@@H]4CCC5C(C)(C)OC(=O)C[C@H]6OO[C@]4(CC[C@]3(C)C12)CC56O (some centres not stated) | > 100 µM | > 100 µM | > 100 µM | > 100 µM | > 100 µM | > 100 µM | > 100 µM | > 100 µM | > 100 µM | > 100 µM | 
